Measurements from the NIST ThermoML archive (doi:10.1016/j.jct.2017.05.001).

Assay: wn = mass fraction of the nth substance listed
Conditions: Liquid; for viscosity: Falling or rolling sphere viscometry; for mass density: Vibrating tube method

CN(C)CCO [2-(N,N-dimethylamino)ethanol] + O
Conditions	mass density, w1 = 0.1005 [kg/m3]	mass density, w1 = 0.202 [kg/m3]	mass density, w1 = 0.3005 [kg/m3]	mass density, w1 = 0.3995 [kg/m3]	viscosity, w1 = 0.1005 [mPa·s]	viscosity, w1 = 0.202 [mPa·s]	viscosity, w1 = 0.3005 [mPa·s]	viscosity, w1 = 0.3995 [mPa·s]
373.15 K, 30000 kPa	964.4	956.3	947.9	938.5	0.3711	0.4702	0.6099	0.7742
373.15 K, 40000 kPa	968.7	960.9	952.4	943.3	0.3746	0.4771	0.6239	0.7998
373.15 K, 50000 kPa	972.8	964.9	956.6	947.6	–	–	–	–
373.15 K, 60000 kPa	976.8	968.9	960.9	952.1	0.3833	0.4923	0.6493	0.8409
373.15 K, 70000 kPa	980.9	973	965	956.2	–	–	–	–
373.15 K, 80000 kPa	984.7	976.9	969.1	960.4	0.3916	0.5073	0.6735	0.8827
373.15 K, 90000 kPa	988.6	980.6	972.8	964.3	–	–	–	–
373.15 K, 100000 kPa	992.1	984.3	976.4	968.1	0.3984	0.5213	0.6978	0.9306
373.15 K, 110000 kPa	995.9	988	980.3	971.9	–	–	–	–
373.15 K, 120000 kPa	999.5	991.6	983.8	975.6	–	–	–	–
373.15 K, 130000 kPa	1003	995	987.3	979.1	–	–	–	–
373.15 K, 140000 kPa	1006.3	998.4	990.7	982.6	–	–	–	–
393.15 K, 100 kPa	934.5	925.2	915	903.9	–	–	–	–
393.15 K, 500 kPa	934.9	925.5	915.5	904.3	–	–	–	–
393.15 K, 1000 kPa	935.1	925.7	915.7	904.6	–	–	–	–
393.15 K, 2000 kPa	935.6	926.3	916.3	905.2	–	–	–	–
393.15 K, 5000 kPa	937.1	927.9	917.9	907	0.2917	0.3533	0.4325	0.5209
393.15 K, 10000 kPa	939.7	930.5	920.8	910	0.2952	0.3557	0.4367	0.5259
393.15 K, 15000 kPa	942.1	933	923.4	912.8	0.2973	0.3585	0.4425	0.5368
393.15 K, 20000 kPa	944.6	935.6	926.1	915.7	0.2998	0.3624	0.4483	0.5458
393.15 K, 25000 kPa	–	–	–	–	0.3019	0.366	0.4536	0.5538
393.15 K, 30000 kPa	949.3	940.5	931.2	921	0.3036	0.3687	0.4597	0.5613
393.15 K, 40000 kPa	953.9	945.2	936.2	926.3	0.3078	0.3736	0.4697	0.578
393.15 K, 50000 kPa	958.2	949.6	940.8	931	–	–	–	–
393.15 K, 60000 kPa	962.6	954.1	945.3	935.9	0.3147	0.3862	0.489	0.6086
393.15 K, 70000 kPa	966.9	958.5	949.8	940.5	–	–	–	–
393.15 K, 80000 kPa	971	962.4	953.9	944.8	0.322	0.3985	0.5076	0.6407
393.15 K, 90000 kPa	975	966.6	958.1	949.2	–	–	–	–
393.15 K, 100000 kPa	978.8	970.5	962.2	953.2	0.3308	0.4097	0.5265	0.6716
393.15 K, 110000 kPa	982.7	974.3	966	957.3	–	–	–	–
393.15 K, 120000 kPa	986.5	978.2	969.9	961.2	–	–	–	–
393.15 K, 130000 kPa	990	981.7	973.5	964.9	–	–	–	–
393.15 K, 140000 kPa	993.7	985.3	977.2	968.9	–	–	–	–
